The subject of this data set is CCRIS mutagenicity, Ames/micronucleus/aberration tests. The experiment in a line: CCRIS mutagenicity studies.
The mark [1] stands for this setting: Test System: AMES SALMONELLA TYPHIMURIUM, Strain/Indicator: TA98, Metabolic Activation: NONE, Method: PREINCUBATION
The mark [2] stands for this setting: Test System: AMES SALMONELLA TYPHIMURIUM, Strain/Indicator: TA98, Metabolic Activation: RAT LIVER S-9, PHENOBARBITAL AND 5,6-BENZOFLAVONE, Method: PREINCUBATION
The mark [3] stands for this setting: Test System: AMES SALMONELLA TYPHIMURIUM, Strain/Indicator: TA100, Metabolic Activation: NONE, Method: PREINCUBATION
The mark [4] stands for this setting: Test System: AMES SALMONELLA TYPHIMURIUM, Strain/Indicator: TA100, Metabolic Activation: RAT LIVER S-9, PHENOBARBITAL AND 5,6-BENZOFLAVONE, Method: PREINCUBATION
The mark [5] stands for this setting: Test System: AMES SALMONELLA TYPHIMURIUM, Strain/Indicator: TA1535, Metabolic Activation: NONE, Method: PREINCUBATION
Setting [6] is: Test System: AMES SALMONELLA TYPHIMURIUM, Strain/Indicator: TA1535, Metabolic Activation: RAT LIVER S-9, PHENOBARBITAL AND 5,6-BENZOFLAVONE, Method: PREINCUBATION
The mark [7] stands for this setting: Test System: AMES SALMONELLA TYPHIMURIUM, Strain/Indicator: TA1537, Metabolic Activation: NONE, Method: PREINCUBATION
Where [8] appears, read: Test System: AMES SALMONELLA TYPHIMURIUM, Strain/Indicator: TA1537, Metabolic Activation: RAT LIVER S-9, PHENOBARBITAL AND 5,6-BENZOFLAVONE, Method: PREINCUBATION
Setting [9] is: Test System: E.COLI, Strain/Indicator: WP2 UVRA, Metabolic Activation: NONE, Method: PREINCUBATION
The mark [10] stands for this setting: Test System: E.COLI, Strain/Indicator: WP2 UVRA, Metabolic Activation: RAT LIVER S-9, PHENOBARBITAL AND 5,6-BENZOFLAVONE, Method: PREINCUBATION

Activity calls are given as the source filed them. The rule behind the calls is not given here.

As to `CNCc1ccc(CSCCNC(=NCC(O)c2ccc(O)cc2)NS(C)(=O)=O)o1` (stereo not given), the mutagenic call is, setting by setting: under setting [1], “inactive; negative”; under setting [2], “inactive; negative”; under setting [3], “inactive; negative”; under setting [4], “inactive; negative”; under setting [5], “inactive; negative”; under setting [6], “inactive; negative”. The mutagenic call is “inactive; negative” under setting [7], “inactive; negative” under setting [8], “inactive; negative” under setting [9] and “inactive; negative” under setting [10].

As to `CCN(CC)CCNC(=O)c1cc(Cl)c(N)cc1OC`, the mutagenic call was “active; positive” (Test System: CHINESE HAMSTER V-79, Strain/Indicator: V-79 (HGPRT)/6-THIOGUANINE, Metabolic Activation: NONE); “inactive; negative” (Test System: UDS HUMAN HEPATOCYTES, Strain/Indicator: THY INCORP, Metabolic Activation: NONE, Method: AUTORADIOGRAPHY); “inactive; negative” (Test System: UDS RAT HEPATOCYTES, Strain/Indicator: THY INCORP, Metabolic Activation: NONE, Method: AUTORADIOGRAPHY).

As to `O=C(O)c1ccc([N+](=O)[O-])o1`, the mutagenic call is “inactive; negative” (Test System: AMES SALMONELLA TYPHIMURIUM, Strain/Indicator: TA98(1,8-DNP6), Metabolic Activation: NONE, Method: STANDARD PLATE); “inactive; negative” (Test System: AMES SALMONELLA TYPHIMURIUM, Strain/Indicator: TA98(1,8-DNP6), Metabolic Activation: RAT, LIVER, S-9, 3-METHYLCHOLANTHRENE, Method: STANDARD PLATE); “inactive; negative” (Test System: AMES SALMONELLA TYPHIMURIUM, Strain/Indicator: TA98(NR), Metabolic Activation: NONE, Method: STANDARD PLATE); “inactive; negative” (Test System: AMES SALMONELLA TYPHIMURIUM, Strain/Indicator: TA98(NR), Metabolic Activation: RAT, LIVER, S-9, 3-METHYLCHOLANTHRENE, Method: STANDARD PLATE); “inactive; negative” (Test System: AMES SALMONELLA TYPHIMURIUM, Strain/Indicator: TA98, Metabolic Activation: NONE, Method: STANDARD PLATE); “inactive; negative” (Test System: AMES SALMONELLA TYPHIMURIUM, Strain/Indicator: TA98, Metabolic Activation: RAT, LIVER, S-9, 3-METHYLCHOLANTHRENE, Method: STANDARD PLATE). For the same molecule, the mutagenic call (Test System: AMES SALMONELLA TYPHIMURIUM, Strain/Indicator: TA100, Metabolic Activation: NONE, Method: STANDARD PLATE) is “active; positive”.

With `CCCCCN(CCCOC)C(=O)C(CCC(=O)O)NC(=O)c1ccc(Cl)c(Cl)c1` (stereo not given), the mutagenic call is, setting by setting: under setting [1], “inactive; negative”; under setting [2], “inactive; negative”; under setting [3], “inactive; negative”; under setting [4], “inactive; negative”; under setting [5], “inactive; negative”; under setting [6], “inactive; negative”. Besides, the mutagenic call was “inactive; negative” under setting [7], “inactive; negative” under setting [8], “inactive; negative” under setting [9] and “inactive; negative” under setting [10].

As for `Clc1ccc(C(c2ccccc2Cl)C(Cl)(Cl)Cl)cc1` (stereo not given), the mutagenic call was “active; positive (polyploidy)” (End Point: IN VIVO CHROMOSOMAL ABERRATIONS, Test System: MAMMARY GLAND CELLS USING DUAL PROBE FISH, Species: RAT, Strain/Sex: SPRAGUE-DAWLEY/FEMALE, Route: SUBCUTANEOUS INJECTION) and “inactive; negative” (End Point: IN VIVO MICRONUCLEUS, Test System: MAMMARY GLAND CELLS, Species: RAT, Strain/Sex: SPRAGUE-DAWLEY/FEMALE, Route: SUBCUTANEOUS INJECTION).

For the molecule `O=Cc1cccc(Cl)c1Cl`, the mutagenic call is, setting by setting: under setting [1], “inactive; negative”; (Test System: AMES SALMONELLA TYPHIMURIUM, Strain/Indicator: TA98, Metabolic Activation: RAT LIVER S-9, PCB, Method: PREINCUBATION) “inactive; negative”; under setting [3], “inactive; negative”; (Test System: AMES SALMONELLA TYPHIMURIUM, Strain/Indicator: TA100, Metabolic Activation: RAT LIVER S-9, PCB, Method: PREINCUBATION) “inactive; negative”; (Test System: AMES SALMONELLA TYPHIMURIUM, Strain/Indicator: TA104, Metabolic Activation: NONE, Method: PREINCUBATION) “inactive; negative”; (Test System: AMES SALMONELLA TYPHIMURIUM, Strain/Indicator: TA104, Metabolic Activation: RAT LIVER S-9, PCB, Method: PREINCUBATION) “inactive; negative”. In addition, the mutagenic call by setting is: under setting [9], “inactive; negative”; (Test System: E.COLI, Strain/Indicator: WP2 UVRA, Metabolic Activation: RAT LIVER S-9, PCB, Method: PREINCUBATION) “inactive; negative”.

The values above are taken from PubChem BioAssay AID1259407 (Chemical Carcinogenesis Research Information System (CCRIS), 2018).
